We go through 54 compounds from patent publication US20260226034A1 (The Rockefeller University, priority 2023, published 2026).

In the test the target is NSP14 (Severe acute respiratory syndrome coronavirus 2, UniProt P0DTD1). Kind of test: NSP14 MTase inhibition assay at 37° C. (MTase-Glo SAH detection). The conditions noted are these: 0.3 nM NSP14, 2.5 μM SAM, 2.5 μM GpppA RNA, read-out: Nsp14 Mtase Inh. IC50. Type of test: biochemical, SARS-CoV-2. On the procedure: NSP14 MTase assay at 37° C. (0.3 nM NSP14 as final enzyme concentration)
The NSP14 MTase assay at 37° C. is carried out in 384-well flat bottom polystyrene microplates (Greiner, 781075). Per well, 10 μl of 1×NSP14 reaction buffer (50 mM Tris-HCl, pH 7.5, 6 mM KCl, 1.25 mM MgCl2, 1 mM DTT, and 0.01% Tween-20) are dispensed in columns 1-23 using a Thermo Multidrop Combi dispenser (Thermo Scientific). 0.1 μl of serially diluted compounds in DMSO are dispensed into columns 1-22 of the assay microplates with a Janus 384 MDT NanoHead (PerkinElmer). In wells of column 23, which serve as negative controls, no compounds are added.
The NSP14 reaction is started by adding 4 μl of a 4× substrate solution containing S-adenosyl methionine (SAM, 10 μM) and GpppA RNA (10 μM) prepared in 1×NSP14 reaction buffer. Any addition of reagents is followed by a 30 second centrifugation at 500×g to ensure that all liquid was collected at the bottom of the well. The final concentrations of NSP14, SAM, and GpppA RNA are 0.3 nM, 2.5 μM, and 2.5 μM, respectively. The final reaction volume is 16 μl. Plates are sealed and incubated for 45 min at 37° C.
For SAH detection, 1 μl 5× MTase-Glo™ Reagent (Promega) is added to each well, plates are mixed for 1-2 minutes and incubated at room temperature for 30 minutes. 5 μl of room-temperature MTase-Glo™ Detection Solution (Promega) is added to each well, plates are mixed for 1-2 minutes and incubated at room temperature for 30 minutes. Luminescence signals of each well are recorded in relative light units (RLUs) using a Biotek Synergy Neo plate reader (BioTek, Winooski, VT). The SAH production is normalized against the positive control (PK, column 24) and negative control (NK, column 23) as follows: normalized % inhibition=100×(RLUsample-RLUaverageNK)/(RLUaveragePK-RLUaverageNK).

Where two headings read alike, the source gives them in different places.

For `Cc1c(S(=O)(=O)c2ccc3[nH]ncc3c2)cc(C(=O)N[C@@H]2CCN(c3cc(C#N)ccn3)C2)n1C` [A.79], the IC50 (45 min at 37° C.) is 0.6 nM.

Regarding `Cc1c(S(=O)(=O)c2ccc3[nH]ncc3c2)cc(C(=O)N[C@@H]2CCN(c3ccccc3C#N)C2)n1C` [A.83], the IC50 (45 min at 37° C.) worked out at 0.84 nM.

Consider `Cc1c(S(=O)(=O)c2ccc3[nH]nc(F)c3c2)cc(C(=O)NC(c2ccccc2)C(F)(F)F)n1C` (stereo not drawn) [B.122], for which, where the note is “37° C.”, the IC50 worked out at 70 nM.

Consider `COCC1(NC(=O)c2cc(S(=O)(=O)c3ccc4[nH]ncc4c3)c(C)n2C)CCN(c2ncc(F)cn2)C1` (single isomer, unassigned) [A.115, 4-((1H-indazol-5-yl)sulfonyl)-N-(1-(5-fluoropyrimidin-2-yl)-3-(methoxymethyl)pyrrolidin-3-yl)-1,5-dimethyl-1H-pyrrole-2-carboxamide], for which, where the note is “45 min at 37° C.”, the IC50 was 37 nM.

`Cc1c(S(=O)(=O)c2ccc3[nH]ncc3c2)cc(C(=O)NCc2cccc3c2N(C)C(=O)C3)n1C` [B.13]: the IC50 (37° C.) was 0.6 nM.

`Cc1c(S(=O)(=O)c2ccc3[nH]ncc3c2)cc(C(=O)N[C@H]2CN(c3ncc(F)cn3)C[C@H]2O)n1C` [A.89]: for the setting “45 min at 37° C.”, the IC50 is 14 nM.

With `Cc1cc[nH]c(=O)c1CNC(=O)c1cc(S(=O)(=O)c2ccc3[nH]ncc3c2)c(C)n1C` [B.116], the IC50 (37° C.) is 4.6 nM.

For the compound `Cc1c(S(=O)(=O)c2ccc3[nH]ncc3c2Cl)cc(C(=O)NCc2c(F)ccc3c2N(C)C(=O)C32CC2)n1C` [B.143], the IC50 (37° C.) is 0.4 nM.

For `Cc1c(S(=O)(=O)c2ccc3[nH]nc(F)c3c2)cc(C(=O)NC(c2ccccc2)c2ccccc2)n1C` [B.126], the IC50 (37° C.) came to 108 nM.

Regarding `CCn1nccc1CNC(=O)c1cc(S(=O)(=O)c2ccc3[nH]ncc3c2)c(C)n1C` [B.166], under “37° C.”, the IC50 turned out to be 0.95 nM.

Consider `Cc1c(S(=O)(=O)c2cc(CO)c3[nH]ncc3c2)cc(C(=O)NCc2cccc3cnn(C4CC4)c23)n1C` [B.45], for which the IC50 (37° C.) was 4 nM.

In the case of `Cc1c(S(=O)(=O)c2ccc3[nH]ncc3c2)cc(C(=O)NCc2cccc3c2CCC(=O)N3C)n1C` [B.25], the IC50 (37° C.) is below 0.15 nM.

As for `Cc1c(S(=O)(=O)c2cc(C3CC3)c3[nH]ncc3c2)cc(C(=O)NCc2cccc3cnn(C4CC4)c23)n1C` [B.41], the IC50 (37° C.) stood at 50 nM.

For the compound `Cc1c(S(=O)(=O)c2ccc3[nH]ncc3c2)cc(C(=O)NCc2c[nH]c(=O)c3ccccc23)n1C` [B.21], the IC50 (37° C.) came to 0.54 nM.

Regarding `Cc1c(S(=O)(=O)c2ccc3[nH]ncc3c2)cc(C(=O)N[C@H]2CCc3c(F)ccc(F)c32)n1C` (single isomer, unassigned) [B.140], the IC50 (37° C.) amounted to 0.31 nM.

On to `Cc1c(S(=O)(=O)c2ccc3[nH]ncc3c2)cc(C(=O)NCc2ccccc2C#N)n1C` [B.101], for which, for the setting “37° C.”, the IC50 stood at 192 nM.

As for `Cc1c(S(=O)(=O)c2ccc3[nH]ncc3c2)cc(C(=O)N[C@@H]2CCN(c3ncc(F)cn3)C2)n1C` [A.34, N-[(3R)-1-(5-fluoropyrimidin-2-yl)pyrrolidin-3-yl]-4-(1H-indazol-5-ylsulfonyl)-1,5-dimethyl-pyrrole-2-carboxamide], the IC50 (45 min at 37° C.) was 0.17 nM.

Turning to `CC(=O)Nc1ccc(S(=O)(=O)c2cc(C(=O)NCc3c(F)ccc4occc34)n(C)c2C)cc1` [A.30], for the setting “45 min at 37° C.”, the IC50 amounted to 243 nM.

Consider `Cc1c(S(=O)(=O)c2ccc3[nH]nc(F)c3c2)cc(C(=O)NCc2cccc3cnn(C)c23)n1C` [B.12], for which the IC50 (37° C.) is 0.63 nM.

On to `Cc1c(S(=O)(=O)c2ccc3[nH]ncc3c2)cc(C(=O)NCc2[nH]c(=O)ccc2Cl)n1C` [B.190], for which, where the note is “37° C.”, the IC50 came out at 3.3 nM.

Consider `COc1ccc(S(=O)(=O)c2cc(C(=O)NCc3cccc4cnn(C)c34)n(C)c2C)cn1` [A.28], for which the IC50 (45 min at 37° C.) is 119 nM.

Regarding `Cn1ncc(Cl)c1CNC(=O)c1cc(S(=O)(=O)c2ccc3[nH]ncc3c2)c2n1CCC2` [B.191], the IC50 (37° C.) was found to be 8.6 nM.

Turning to `Cc1c(S(=O)(=O)c2ccc3[nH]ncc3c2)cc(C(=O)N[C@@H]2CCN(c3ncccc3F)C2)n1C` [A.43], the IC50 (45 min at 37° C.) stood at 0.42 nM.

With `Cc1c(S(=O)(=O)c2cc(F)c3[nH]ncc3c2)cc(C(=O)NCc2ncccc2F)n1C` [B.58], the IC50 (37° C.) was 2.3 nM.

Turning to `Cc1c(S(=O)(=O)c2ccc3[nH]ncc3c2)cc(C(=O)NCc2nccc3ncn(C4CC4)c23)n1C` [B.117], the IC50 (37° C.) was determined as 0.18 nM.

As for `Cc1c(S(=O)(=O)c2ccc3[nH]ncc3c2)cc(C(=O)NC(=O)c2ccccc2)n1C` [B.169], where the note is “37° C.”, the IC50 came out at 3.2 nM.

Take `Cc1c(S(=O)(=O)c2ccc3[nH]ncc3c2)cc(C(=O)NCc2c(F)ccc(OCc3ccc(C(=O)O)cc3)c2F)n1C` [B.123]: where the note is “37° C.”, the IC50 was below 0.15 nM.

As for `Cc1c(S(=O)(=O)c2ccc3[nH]ncc3c2)cc(C(=O)NC2CN(c3ncc(F)cn3)C[C@@H]2F)n1C` (stereo partly drawn) [A.46], for the setting “45 min at 37° C.”, the IC50 was 0.77 nM.

Consider `Cc1c(S(=O)(=O)c2ccc3[nH]ncc3c2)cc(C(=O)NCc2cccc3c2ccc(=O)n3C)n1C` [B.33], for which the IC50 (37° C.) was 0.35 nM.

`Cc1c(S(=O)(=O)c2ccc3[nH]ncc3c2)cc(C(=O)N[C@@H]2CCN(c3ncccn3)C2)n1C` [A.64]: under “45 min at 37° C.”, the IC50 was determined as 0.78 nM.

Consider `Cc1cc(S(=O)(=O)c2cc(C(=O)NCc3c(F)ccc4ncn(C5CC5)c34)n(C)c2C)cc2cn[nH]c12` [B.27], for which the IC50 (37° C.) came to 0.21 nM.

For the compound `Cc1c(S(=O)(=O)c2ccc3c(cnn3C)c2)cc(C(=O)NCc2c(F)ccc3cnn(C4CC4)c23)n1CCCC(=O)O` [B.62], where the note is “37° C.”, the IC50 was below 0.15 nM.

For the compound `COCc1cc(S(=O)(=O)c2cc(C(=O)NCc3cccc4cnn(C5CC5)c34)n(C)c2C)cc2cn[nH]c12` [B.93], the IC50 (37° C.) came out at 68 nM.

As for `Cc1c(S(=O)(=O)c2ccc3[nH]ncc3c2)cc(C(=O)NCc2c(F)cccc2F)n1C` [B.22], for the setting “37° C.”, the concentration for half-maximal inhibition (IC50) was 0.23 nM.

Regarding `Cc1c(S(=O)(=O)c2cnc3[nH]ncc3c2)cc(C(=O)NCc2cccc3cnn(C)c23)n1C` [B.30], the IC50 (37° C.) worked out at 4.6 nM.

With `O=C(N[C@@H]1CCN(c2ncc(F)cn2)C1)c1cc(S(=O)(=O)c2ccc3[nH]ncc3c2)c2n1CCC2` [A.68], the IC50 (45 min at 37° C.) is 0.36 nM.

Turning to `Cc1c(S(=O)(=O)c2ccc3[nH]ncc3c2)cc(C(=O)N[C@H](C)c2c(F)cccc2F)n1C` (single isomer, unassigned) [B.64], the IC50 (37° C.) came to 4 nM.

As to `Cc1c(S(=O)(=O)c2ccc3[nH]ncc3c2)cc(C(=O)NCc2ncccc2C(F)(F)F)n1C` [B.83], the half-maximal inhibitory concentration (IC50) (37° C.) was 5.3 nM.

On to `Cc1c(S(=O)(=O)c2cc(Cl)c3[nH]ncc3c2)cc(C(=O)NCc2ccnn2C)n1C` [B.134], for which the IC50 (37° C.) was determined as 0.18 nM.

As to `Cc1c(S(=O)(=O)c2ccc3[nH]ncc3c2)cc(C(=O)NCc2n[nH]c(=O)c3ccccc23)n1C` [B.121], the IC50 (37° C.) is below 0.15 nM.

Consider `Cc1c(S(=O)(=O)c2ccc3[nH]ncc3c2)cc(C(=O)N[C@@H]2CCN(c3ncccc3C(F)(F)F)C2)n1C` [A.80], for which the IC50 (45 min at 37° C.) stood at 1.5 nM.

Turning to `Cc1c(S(=O)(=O)c2ccc3c(cnn3C)c2)cc(C(=O)NCc2c(F)ccc3occc23)n1C` [A.19], the IC50 (45 min at 37° C.) stood at 21 nM.

Take `Cc1c(S(=O)(=O)c2ccc3[nH]ncc3c2)cc(C(=O)N[C@H]2CN(c3ncc(F)cn3)C[C@H]2F)n1C` [A.48]: the IC50 (45 min at 37° C.) worked out at 33 nM.

With `Cc1nc(N2CC[C@@H](NC(=O)c3cc(S(=O)(=O)c4ccc5[nH]ncc5c4)c(C)n3C)C2)nc(C)c1F` [A.75], where the note is “45 min at 37° C.”, the IC50 is 0.51 nM.

As for `Cc1c(S(=O)(=O)c2ccc3[nH]ncc3c2)cc(C(=O)N[C@@H]2CCN(c3ccc(C(F)(F)F)nn3)C2)n1C` [A.76], the IC50 (45 min at 37° C.) turned out to be 0.44 nM.

For `Cc1c(S(=O)(=O)c2ccc3[nH]ncc3c2)cc(C(=O)N[C@H](C)c2c(F)cccc2F)n1C` (single isomer, unassigned) [B.65], the IC50 (37° C.) worked out at 65 nM.

`Cc1c(S(=O)(=O)c2ccc3[nH]ncc3c2)cc(C(=O)N[C@@H]2CCN(c3cc(C(F)(F)F)ccn3)C2)n1C` [A.74]: for the setting “45 min at 37° C.”, the IC50 was 0.57 nM.

Take `Cc1c(S(=O)(=O)c2cc(F)c3[nH]ncc3c2)cc(C(=O)NCc2c(F)ccc3nnn(C4CC4)c23)n1C` [B.94]: where the note is “37° C.”, the concentration for half-maximal inhibition (IC50) was below 0.15 nM.

With `Cc1c(S(=O)(=O)c2ccc3[nH]ncc3c2)cc(C(=O)NCc2nccc3cnn(C)c23)n1C` [B.24], the IC50 (37° C.) was found to be 0.62 nM.

Regarding `Cc1c(S(=O)(=O)c2ccc3[nH]ncc3c2)cc(C(=O)N[C@@H]2CCN(c3ncc(C#N)cn3)C2)n1C` [A.49], for the setting “45 min at 37° C.”, the IC50 worked out at 0.63 nM.

Consider `Cc1c(S(=O)(=O)c2ccc3[nH]ncc3c2)cc(C(=O)N[C@@H]2CCN(c3ccc(F)nn3)C2)n1C` [A.53], for which the IC50 (45 min at 37° C.) amounted to 0.36 nM.

Regarding `Cc1c(S(=O)(=O)c2cc(Cl)c3[nH]ncc3c2)cc(C(=O)NCc2c(F)ccc3cnn(C4CC4)c23)n1C` [B.79], the IC50 (37° C.) came out at 0.17 nM.

Regarding `Cc1c(S(=O)(=O)c2ccccc2)cc(C(=O)NCc2cccc3cnn(C)c23)n1C` [A.16], the IC50 (45 min at 37° C.) was 15 nM.

`Cc1c(S(=O)(=O)c2ccc3[nH]ncc3c2)cc(C(=O)N[C@@H]2CCN(c3ccnc(C(F)(F)F)n3)C2)n1C` [A.92]: the IC50 (45 min at 37° C.) was below 0.15 nM.
